Source: patent US11266645B2, “Methods for treating lymphoma” (Alexion Pharmaceuticals, Inc., priority 2018, dated 2022)
“And” between values parts separate entries of the source, which are not always exact repeats. Identical values can stand only once.

How the values were obtained:
[1] = system: patients with relapsed/refractory (r/r) B- and T-cell lymphoma; experiment: Phase 2 study of cerdulatinib 30 mg BID in relapsed/refractory B- and T-cell lymphoma (Example 2); type: in vivo, human
Description: This study intended to confirm the safety and efficacy of cerdulatinib dosed 30 mg orally BID in patients with relapsed/refractory (r/r) B- and T-cell lymphoma. Dose reductions were permitted to a minimum of 15 mg BID. Response was assessed by Lugano Classification criteria.
Ninety nine patients enrolled (FL: 36, CLL/SLL: 28, PTCL: 18, marginal zone lymphoma: 8, aggressive: 5, Waldenstrom's macroglobulinemia: 4) (Table 4). Median age is 68 (42-93) and median # of prior therapies is 3 (1-13) (Table 5). 30 patients had prior BTK, PI3K or BCL-2 inhibitor therapy. The most common AEs of any grade are diarrhea (42%), fatigue (36%), and nausea (32%). Grade 3+ AEs occurring in ≥5% patients are neutropenia (18%), lipase increase (15%), pneumonia (12%), diarrhea (10%), and fatigue (7%). 5 patients have had Grade 5 infections considered related to study drug (3 of 5 in the CLL cohort). The target PK range has been achieved with an average SSCmin of ˜0.8 μM.

[2] = system: serum markers of inflammation; experiment: Serum protein markers of inflammation (multiplexed luminex); type: in vivo, human
Description: Whole blood for isolation of serum was collected prior to dosing on days 1, 8, and 28 to measure changes in protein markers of inflammation and immune function. Serum samples were snap-frozen on dry ice immediately following its separation and stored at −80° C. Samples were analyzed using a multiplexed luminex-based technology (Myriad RBM, Austin, Tex.), utilizing the companies ImmunoMap (40 analytes) and InflammationMap (45 analytes) platforms. Serum from healthy donors was used as control.
The data were analyzed using the statistical language R and the accessory packages ggplot2 (Wickham, H., Elegant Graphics for Data Analysis. 2016: Springer-Verlag) and drc (Ritz, C., et al., Dose-Response Analysis Using R. PLoS One, 2015. 10(12): p. e0146021). For cell signaling assays, percent inhibition was determined by normalizing the receptor-induced phosphorylation events mean fluorescent intensity (MFI) to that of pre-dose receptor-induced MFI. The resulting relative activities were analyzed by nonlinear regression to a 3-parameter log-logistic function with an upper and lower limit set at 100 and 0%. For the analysis of immune and inflammation markers in serum, the varying concentration units were converted to a common scale in pg/mL. Values below and in excess of the detection limit were replaced by half the detection limit and the upper limit, respectively. For missing values, the median value for each marker from the treatment group was imputed. Statistically significant differences between the healthy and patient serum marker at all cycles (Cycle 1 Day 1, Cycle 1 Day 8, and Cycle 2 Day 1) were detected by paired t test. Dimension reduction of expression of the biomarker table in healthy and patient serum was performed using linear discriminant analysis, as is implemented in R. For the biomarkers and tumor response, reduction in biomarker after treatment was normalized to that before treatment and correlated to the maximal tumor response (growth or reduction), representing the ratio of minimal tumor area following treatment and tumor area before treatment. The significance of the relation between maximum tumor response and change in a specific biomarker was evaluated using Spearman-Rank-correlation and p value.

SMILES: CCS(=O)(=O)N1CCN(c2ccc(Nc3ncc(C(N)=O)c(NC4CC4)n3)cc2)CC1 [cerdulatinib, 4-(cyclopropylamino)-2-((4-(4-(ethylsulfonyl)piperazin-1-yl)phenyl)amino)pyrimidine-5-carboxamide]
- duration of durable PR ([1]; CLL patient relapsed on BTK inhibitor): ≥ 5 months
- CR (%) ([1]; CLL/SLL): (4) %
- CR, number of patients ([1]; CLL/SLL): 1
- PD (%) ([1]; CLL/SLL): (4) %
- PD, number of patients ([1]; CLL/SLL): 1
- PR (%) ([1]; CLL/SLL): (57) %
- PR, number of patients ([1]; CLL/SLL): 16
- ORR ([1]; CLL/SLL, N 28): 61%
- CR, number of patients ([1]; DLBCL, tFL, and MCL): 0
- PD (%) ([1]; DLBCL, tFL, and MCL): 60%
- PD, number of patients ([1]; DLBCL, tFL, and MCL): 3
- PR (%) ([1]; DLBCL, tFL, and MCL): 20%
- PR, number of patients ([1]; DLBCL, tFL, and MCL): 1
- ORR ([1]; DLBCL, tFL, and MCL, N 5): 20%
- CR (%) ([1]; FL): (10) %
- CR, number of patients ([1]; FL): 3
- PD (%) ([1]; FL): (10) %
- PD, number of patients ([1]; FL): 3
- PR (%) ([1]; FL): (39) %
- PR, number of patients ([1]; FL): 12
- duration of durable PR ([1]; FL patient relapsed on BTK inhibitor): 12 months
- ORR ([1]; FL, N 31): 49%
- CR, number of patients ([1]; Other Indolent Lymphoma): 0
- PD (%) ([1]; Other Indolent Lymphoma): 33%
- PD, number of patients ([1]; Other Indolent Lymphoma): 4
- PR (%) ([1]; Other Indolent Lymphoma): 42%
- PR, number of patients ([1]; Other Indolent Lymphoma): 5
- ORR ([1]; Other Indolent Lymphoma, N 12): 42%
- CR (%) ([1]; PTCL): 33%
- PD (%) ([1]; PTCL): 33%
- PD, number of patients ([1]; PTCL): 5
- PR (%) ([1]; PTCL): 13%
- PR, number of patients ([1]; PTCL): 2
- study drug-related Serious Adverse Events (SAEs), number ([1]; PTCL (n=16), Grade 3 to 4): 4
- duration of durable PR ([1]; PTCL patient relapsed on tenalisib): ≥ 3 months
- AEs of any grade: diarrhea ([1]; PTCL patients): 33%
- AEs of any grade: fatigue ([1]; PTCL patients): 22%
- AEs of any grade: lipase increase ([1]; PTCL patients): 17%
- AEs of any grade: nausea ([1]; PTCL patients): 17%
- Grade 3+ AEs: diarrhea, number of patients ([1]; PTCL patients): 3
- Grade 3+ AEs: lipase increase, number of patients ([1]; PTCL patients): 2
- Grade 3+ AEs: neutropenia, number of patients ([1]; PTCL patients): 4
- Grade 3+ AEs: pneumonia, number of patients ([1]; PTCL patients): 2
- deaths or discontinuations due to Treatment Emergent Adverse Events ([1]; PTCL patients (n=16)): no deaths or discontinuations
- CR, number of patients ([1]; PTCL, 15 evaluable): 5
- ORR ([1]; PTCL, N 15, 30 mg BID): 47%
- duration of durable PR ([1]; SLL patient relapsed on venetoclax): ≥ 18 months
- duration of durable PR ([1]; WM patient relapsed on BTK inhibitor): ≥ 7 months
- AEs of any grade: diarrhea ([1]; all 99 patients): 42%
- AEs of any grade: fatigue ([1]; all 99 patients): 36%
- AEs of any grade: nausea ([1]; all 99 patients): 32%
- Grade 3+ AEs: diarrhea ([1]; all 99 patients): 10%
- Grade 3+ AEs: fatigue ([1]; all 99 patients): 7%
- Grade 3+ AEs: lipase increase ([1]; all 99 patients): 15%
- Grade 3+ AEs: neutropenia ([1]; all 99 patients): 18%
- Grade 3+ AEs: pneumonia ([1]; all 99 patients): 12%
- patients with Grade 5 infections considered related to study drug ([1]; all 99 patients, 3 of 5 in the CLL cohort): 5 patients
- time on treatment of PTCL patients with CR still on drug ([1]; first (two) responding PTCL patients): 11 months and 12 months and 8 months
- response durations ([1]; first two PTCL patients achieving a response (both CRs)): 10 months and 6 months
- Toxicities ≥ Grade 3: Asthenia/Fatigue ([1]; r/r PTCL, N = 16): 6.3%
- Toxicities ≥ Grade 3: Diarrhea/Colitis ([1]; r/r PTCL, N = 16): 6.3%
- Toxicities ≥ Grade 3: Infection ([1]; r/r PTCL, N = 16): 18.8%
- Toxicities ≥ Grade 3: Neutropenia ([1]; r/r PTCL, N = 16): 6.3%
- serum MIP30, CRP, and VCAM1 ([2]; CLL/SLL and FL patients): significantly reduced
- MPO and CD40 serum levels ([2]; CLL/SLL patients, reduced at baseline): normalized
- serum BDNF ([2]; FL patients, reduced at baseline): normalized
- inhibition of serum inflammation markers ([2]; aggressive lymphomas (DLBCL/MCL)): Limited inhibition
- serum HCC4, IL18, and MIG ([2]; elevated at baseline, both patient groups): unaffected
